Assay results published in patent EP1510220B1 (priority 1993, dated 1994).

Assays:
[1] = test system: Vascular smooth muscle cells (BO54); test: Scratch-migration assay with morphological toxicity grading; format: cell-based, baboon; set-up: key: - = no toxicity; +1 = minimal; +2 = mild; +3 = moderate; +4 = marked toxicity
Protocol: Scratch assays to determine the extent of smooth muscle cell migration inhibition by cytochalasin B were performed in accordance with the following protocol:
Vascular smooth muscle cells (BO54) were derived from explants of baboon aortic smooth muscle, as described in Example 1. The cells were grown in flat bottom, six well tissue culture plates, which hold about 5 ml of medium. The vascular smooth muscle cells were plated at 200,000 cells/well and placed at 37°C in a humidified 5% CO2 incubator for 18 hours. The wells were then scratched with a sterile portion of a single edge razor blade that was held by clamp or pliers and was brought aseptically into contact with the bottom of the well at a 90° angle. The cells from a small area along the scratch were removed by a sterile cotton tipped applicator while the blade was in contact with the bottom of the well. After incubation, the presence of cells in the "scratched" area is indicative of cell migration across the scratch line.
Briefly, a stock solution of cytochalasin B (Sigma Chemical Co.) in dimethyl sulfoxide (DMSO) at 1 mg/ml was prepared. Test dilutions of cytochalasin B or control medium were added. Each experiment included two sets of plates: • A set: Test agent exposure for 1, 3, 6, 8 and 10 days only; and • B set: Test agent exposure for 1, 3, 6, 8 and 10 days, followed by a seven day recovery time with control medium. Both sets of plates were fixed (10% formalin in PBS) and stained (0.02% crystal violet) at the end of the timed exposures. Test concentrations for cytochalasin B were 1, 0.1 and 0.01 µg/ml, and a negative medium control was included. Fresh medium and drug were supplied 3 times per week.
In this Table, "M" indicates Migration Grade, wherein - = no migration; +1 = minimal; +2 = mild; +3 = moderate; and +4 = marked (maximum density; limit of cell contact inhibition) migration of vascular smooth muscle cells into the cleared area adjacent to the scratch. In this Table, "T" denotes a morphological Toxicity Grade, wherein - = no toxicity; +1 = minimal; +2 = mild; +3 = moderate; and +4 = marked toxicity. The migration results are expressed as "Grade in the Cleared Area of the Well / Grade in an Undisturbed Region of the Well." The toxicity values represent a grade for all cells in each well.

[2] = test system: B054 cells (baboon smooth muscle cells); test: cells; format: cell-based
[3] = test system: vascular smooth muscle cells; format: in vivo, pig; settings: 4 days post-trauma
Rat aortic SMCs = test: Wound migration assay on confluent SMC; format: cell-based
Protocol: Cell culture. Rat aortic SMCs from 12-20 week old Wistar male rats were prepared by enzyme dispersion, as described in Example 7. The cultured cells were confirmed as >99% SMC by staining for SM-MHC, and proliferated with a cell cycle time of 36 h. Cells were passaged as described in Example 7, and were used either in primary culture or between passages 6-12.
Migration. Migration was assayed using SMC grown to confluence on glass coverslips. A defined injury is performed on the confluent layer of cells, which are allowed to recover in D-MEM + 10% FCS for 24 h. Bromodeoxyuridine (10 µM) is added between 18-24 h, to label proliferating cells. Cells migrating past the boundary of the wound edge at 24 h are detected by propidium iodide (PI) staining of the cell nuclei (500 µM PI in PBS + 0.5% NP-40 for 30 min at room temperature). Cells that synthesized DNA were detected by antibody staining for bromodeoxyuridine using fluorescein-conjugated anti-bromodeoxyuridine antibodies. Migrating and proliferating cells in each field of view were simultaneously counted by image analysis of the rhodamine emission from PI and fluorescein emission from bromodeoxyuridine.

TGF-beta1 mRNA = test: cells; settings: Rattus norvegicus, 24 h, read-out: increase of TGF-beta1 mRNA
TGF-beta = test: Sandwich ELISA for total latent plus active TGF-beta, rat vascular smooth muscle cell conditioned medium; format: cell-based
Protocol: The total latent and active TGF-beta present was determined by a sandwich ELISA. Maxisorb 96-well ELISA plates (available from Gibco) were coated with neutralizing antiserum against TGF-beta (BDA19; available from R & D Systems) at 2 micrograms/cm^2 in phosphate buffered saline (PBS) overnight at room temperature. The plates were washed between each step with tris-buffered saline containing 0.1% Triton X-100 (available from Sigma Chemical Company). The plates were incubated with samples for 2 hours, with a second antibody to TGF-beta (BDA5; available from R & D Systems) at 0.1 micrograms/ml for 2 hours, anti-rabbit IgG peroxidase conjugated to antibody (available from Sigma Chemical Co.), made up according to manufacturer's instructions, for 15 minutes. Absorbances at 492 nm were converted into quantities of TGF-beta protein using a standard curve. Both conditioned media and standards were assayed in the presence of 10% FCS in DMEM. This assay was linear for TGF-beta concentrations in the range from 0.1 ng/ml to 20 ng/ml in the presence of 10% FCS in DMEM.

cytochalasin B
morphological Toxicity Grade ([1]; 7-day Recovery Post Exposure, 0.01 µg/mL, Day 1): - | morphological Toxicity Grade ([1]; 7-day Recovery Post Exposure, 0.01 µg/mL, Day 3): - | morphological Toxicity Grade ([1]; 7-day Recovery Post Exposure, 0.01 µg/mL, Day 6): - | morphological Toxicity Grade ([1]; 7-day Recovery Post Exposure, 0.01 µg/mL, Day 8): - | morphological Toxicity Grade ([1]; 7-day Recovery Post Exposure, 0.01 µg/mL, Day 10): - | morphological Toxicity Grade ([1]; 7-day Recovery Post Exposure, 0.1 µg/mL, Day 1): - | morphological Toxicity Grade ([1]; 7-day Recovery Post Exposure, 0.1 µg/mL, Day 3): - | morphological Toxicity Grade ([1]; 7-day Recovery Post Exposure, 0.1 µg/mL, Day 6): - | morphological Toxicity Grade ([1]; 7-day Recovery Post Exposure, 0.1 µg/mL, Day 8): - | morphological Toxicity Grade ([1]; 7-day Recovery Post Exposure, 0.1 µg/mL, Day 10): - | morphological Toxicity Grade ([1]; Continuous Exposure, 0.01 µg/mL, Day 1): - | morphological Toxicity Grade ([1]; Continuous Exposure, 0.01 µg/mL, Day 3): - | morphological Toxicity Grade ([1]; Continuous Exposure, 0.01 µg/mL, Day 6): - | morphological Toxicity Grade ([1]; Continuous Exposure, 0.01 µg/mL, Day 8): - | morphological Toxicity Grade ([1]; Continuous Exposure, 0.01 µg/mL, Day 10): - | morphological Toxicity Grade ([1]; Continuous Exposure, 0.1 µg/mL, Day 1): - | morphological Toxicity Grade ([1]; Continuous Exposure, 1.0 µg/mL, Day 6): +4 | morphological Toxicity Grade ([1]; Continuous Exposure, 1.0 µg/mL, Day 8): +4 | morphological Toxicity Grade ([1]; Continuous Exposure, 1.0 µg/mL, Day 10): +4 | minimum effective dose (MED), protein synthesis assay ([2]; 5 minute exposure): 10 µg/mL | minimum effective dose (MED), protein synthesis assay ([2]; 24 hour exposure): 1.0 µg/mL | BRDU labeling grade [3]: 4 (4 = > 10/HPF)

CC/C(=C(\c1ccccc1)c1ccc(OCCN(C)C)cc1)c1ccccc1 [tamoxifen, trans-2-[4-(1,2-diphenyl-1-butenyl)phenoxy]-N,N-dimethylethylamine]
inhibition at 10 µM (Rat aortic SMCs; Rattus norvegicus, added at the time of wounding, TGF-beta-1 10 ng/ml, tamoxifen 10 µM, 24 h, read-out: less cells crossed the boundary of the wound): ~90% | entry into DNA synthesis stimulated upon wounding (Rat aortic SMCs; bromodeoxyuridine labeling): did not significantly inhibit | fold induction at 10 µM (TGF-beta1 mRNA): ~10 | proportion of the TGF-beta present in active form (TGF-beta; 50 micromolar, 96 hours, vehicle < 5%): approximately 35% | fold induction at 50 µM (TGF-beta; Rattus norvegicus, 96 h, read-out: increase of total TGF-beta protein present): ~4
